Key:
Ribonucleoside reductase = target: T1, Ribonucleoside reductase (Mus musculus, UniProt P07742); test: Ribonucleoside reductase activity, L1210; format: biochemical; conditions: 60 min, N=6
T1 construct: preparing the appropriate L1210 cell homogenates or subcellular fractions; endogenous in cells; host or cells: L1210 murine lymphoid leukemia cells, homogenate or subcellular fraction
T1 sequence (P07742 1-792): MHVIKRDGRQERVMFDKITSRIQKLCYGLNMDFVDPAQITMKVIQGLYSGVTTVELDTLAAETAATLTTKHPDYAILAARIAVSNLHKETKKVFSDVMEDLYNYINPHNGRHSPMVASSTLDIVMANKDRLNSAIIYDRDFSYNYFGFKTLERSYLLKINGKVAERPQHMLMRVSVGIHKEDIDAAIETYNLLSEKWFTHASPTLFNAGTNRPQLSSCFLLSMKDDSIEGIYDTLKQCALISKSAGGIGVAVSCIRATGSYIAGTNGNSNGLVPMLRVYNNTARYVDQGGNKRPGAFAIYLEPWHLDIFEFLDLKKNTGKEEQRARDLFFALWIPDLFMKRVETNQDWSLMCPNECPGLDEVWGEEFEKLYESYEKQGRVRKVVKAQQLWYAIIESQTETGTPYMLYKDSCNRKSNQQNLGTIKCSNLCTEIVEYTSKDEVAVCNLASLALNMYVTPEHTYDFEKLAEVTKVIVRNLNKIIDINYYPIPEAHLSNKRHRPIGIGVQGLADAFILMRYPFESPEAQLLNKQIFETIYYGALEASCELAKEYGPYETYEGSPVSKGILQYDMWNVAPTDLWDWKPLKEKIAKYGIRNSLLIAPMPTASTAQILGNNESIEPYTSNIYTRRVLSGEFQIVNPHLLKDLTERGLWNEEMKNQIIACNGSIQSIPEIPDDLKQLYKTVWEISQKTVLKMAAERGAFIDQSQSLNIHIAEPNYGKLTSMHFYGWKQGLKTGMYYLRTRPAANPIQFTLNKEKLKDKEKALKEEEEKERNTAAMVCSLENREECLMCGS
T1 sequence (P11157 1-390 partner): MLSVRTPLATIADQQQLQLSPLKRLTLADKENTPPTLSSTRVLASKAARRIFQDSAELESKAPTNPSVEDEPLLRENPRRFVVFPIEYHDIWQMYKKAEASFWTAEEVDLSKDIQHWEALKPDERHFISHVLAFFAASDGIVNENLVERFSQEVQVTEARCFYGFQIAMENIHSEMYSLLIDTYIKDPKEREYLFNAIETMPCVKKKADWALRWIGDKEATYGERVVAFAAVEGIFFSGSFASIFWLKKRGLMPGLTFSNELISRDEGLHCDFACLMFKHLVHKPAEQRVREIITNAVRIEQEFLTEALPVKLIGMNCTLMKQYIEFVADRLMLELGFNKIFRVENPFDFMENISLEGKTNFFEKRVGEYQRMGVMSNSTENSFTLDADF
Text: (§1) CYTOTOXlCITY OF POLY(PHENOLIC)SULFONATES AND THEIR SODIUM SALTS IN L1210 LYMPHOID LEUKEMIA CELLS Fei Wang, Amy E. Warren, Cheryl R. Barnes and Iris H. Hall* Division of Medicinal Chemistry and Natural Products University of North Carolina Chapel Hill, N.C. […] Because ofthese properties it was surmised that these poly(phenolic)sulfonated compounds may have antineoplastic activity. METHODS Source of Compounds Test compounds were supplied by GeneLabs, Inc. [Redwood City, CA [Table 1]. Radioisotopes were obtained from New England Nuclear [Dupont, Boston, MA]. Substrates and co-factors were purchased om Sigma Chemical Co., [St Louis, MO]. Pentosan sulfate and other antineoplastic standards were obtained from Sigma Chemical Co. Tumor lines were obtained from American Type Culture Collection [Rockville, MD]. 147 Vol. 5, No. 3, 1998 Cytotoxicity ofSodium Poly(Phenolic)Sulfonates in L1210 Lymphoid Leukemia Cells Table 1 Structures of Poly(phenolic)sulfonate Compounds O2R" n Compound R' R" n MW # G1-2041 H OH 8 1489.46 G1-2029 H OH 6 1117.09 G1-2030 H OH 4 744.73 GI-2021 CH3 ONa 8 1777.5 G1-2057 CH3 ONa 4 888.75 GI-2158 CH3 ONa 6 1333.13 GI-2063 OCH3 ONa 8 2001.65 G1-2042 OAc ONa 8 2017.73 Cytotoxicity Poly(phenolic)sulfonates were tested for cytotoxic activity by homogenizing drug in 0.05% Tween 80/H20 to give a mg/ml stock concentration. These solutions were sterilized by passing them through an acrodisc ([…]). The following cell lines were maintained by literature techniques: murine L1210 lymphoid leukemia, P-388 lymphocytic leukemia, rat UMR 106 osteosarcoma, human Tmolt3 acute lymphoblastic T cell leukemia, HUT-8 lymphoma, HeLa-S suspended cervical carcinoma, HeLa solid cervical carcinoma, KB epidermoid nasopharynx, A431 epidermoid carcinoma, colorectal adenocarcinoma SW480, HCT-8 ileocecal adenocarcinoma, lung bronchogenic MB-9812, A549 lung carcinoma, and glioma HS683. Geran et al.'s protocol was used to assess the cytotoxicity of the compounds and standards in each cell line. Cell numbers were determined by the trypan blue exclusion technique. Solid tumor cytotoxicity was determined by Leibovitz et al. 's method utilizing crystal violeeOH and read at 562 nm (Molecular Devices). Values for cytotoxicity were expressed as EDs0 g/ml, i.e. the concentration ofthe compound inhibiting 50% ofcell growth. A value of less than 4 µg/ml was required for significant activity ofgrowth inhibition. Incorporation Studies Incorporation of labeled precursors into 3H-DNA, 3H -RNA and 3H -protein for 10 L1210 cells was obtained. The concentration response for inhibition of DNA, RNA and protein synthesis of the compounds at 25, 50 and 100 l.tM was determined for 60 min incubations. Incorporation of 14C -glycine (53.0 mCi/mmol) into purines was obtained by the method of Cadman et al.[12]. Incorporation of 4C- formate (53.0 mCi/mmol) into pyrimidines was determined by the method of Christopherson et al.[13]. Enzyme Assays Inhibition of various enzyme activities was performed by first preparing the appropriate L1210 cell homogenates or subcellular fractions, then adding the drug to be tested during the enzyme assay. For the concentration response studies, inhibition of enzyme activity was determined at 25, 50 and 100 l.tM of compounds G1-2021, G1-2029, GI-2041 and G1-2063 after 60 min incubations. DNA polymerase Ot activity was determined in cytoplasmic extracts isolated by Eichler et aL's method. The DNA polymerase assay was described by Sedwick et al.[15] using 3H-TTP. Messenger-, ribosomal- and transfer-RNA polymerase enzymes were isolated with different concentrations of ammonium sulfate; individual RNA polymerase activities were determined using 3H -UTP 16,17]. Ribonucleoside reductase activity was measured using 4C -CDP with dithioerythritol. The deoxyribonucleotides 4C -dCDP were separated from the ribonucleotides by TLC on PEI plates. […]

DNA polymerase α = target: T2, DNA polymerase α (Mus musculus, UniProt P33609); test: DNA polymerase alpha activity, L1210 cytoplasmic extracts; format: biochemical; conditions: for DNA polymerase α: 60 min, N=6; for DNA polymerase activity time course, in words: 50 μM over 2 hr
T2 construct: endogenous in cells; host or cells: L1210 murine lymphoid leukemia cells, cytoplasmic extract
T2 sequence (P33609 whole entry): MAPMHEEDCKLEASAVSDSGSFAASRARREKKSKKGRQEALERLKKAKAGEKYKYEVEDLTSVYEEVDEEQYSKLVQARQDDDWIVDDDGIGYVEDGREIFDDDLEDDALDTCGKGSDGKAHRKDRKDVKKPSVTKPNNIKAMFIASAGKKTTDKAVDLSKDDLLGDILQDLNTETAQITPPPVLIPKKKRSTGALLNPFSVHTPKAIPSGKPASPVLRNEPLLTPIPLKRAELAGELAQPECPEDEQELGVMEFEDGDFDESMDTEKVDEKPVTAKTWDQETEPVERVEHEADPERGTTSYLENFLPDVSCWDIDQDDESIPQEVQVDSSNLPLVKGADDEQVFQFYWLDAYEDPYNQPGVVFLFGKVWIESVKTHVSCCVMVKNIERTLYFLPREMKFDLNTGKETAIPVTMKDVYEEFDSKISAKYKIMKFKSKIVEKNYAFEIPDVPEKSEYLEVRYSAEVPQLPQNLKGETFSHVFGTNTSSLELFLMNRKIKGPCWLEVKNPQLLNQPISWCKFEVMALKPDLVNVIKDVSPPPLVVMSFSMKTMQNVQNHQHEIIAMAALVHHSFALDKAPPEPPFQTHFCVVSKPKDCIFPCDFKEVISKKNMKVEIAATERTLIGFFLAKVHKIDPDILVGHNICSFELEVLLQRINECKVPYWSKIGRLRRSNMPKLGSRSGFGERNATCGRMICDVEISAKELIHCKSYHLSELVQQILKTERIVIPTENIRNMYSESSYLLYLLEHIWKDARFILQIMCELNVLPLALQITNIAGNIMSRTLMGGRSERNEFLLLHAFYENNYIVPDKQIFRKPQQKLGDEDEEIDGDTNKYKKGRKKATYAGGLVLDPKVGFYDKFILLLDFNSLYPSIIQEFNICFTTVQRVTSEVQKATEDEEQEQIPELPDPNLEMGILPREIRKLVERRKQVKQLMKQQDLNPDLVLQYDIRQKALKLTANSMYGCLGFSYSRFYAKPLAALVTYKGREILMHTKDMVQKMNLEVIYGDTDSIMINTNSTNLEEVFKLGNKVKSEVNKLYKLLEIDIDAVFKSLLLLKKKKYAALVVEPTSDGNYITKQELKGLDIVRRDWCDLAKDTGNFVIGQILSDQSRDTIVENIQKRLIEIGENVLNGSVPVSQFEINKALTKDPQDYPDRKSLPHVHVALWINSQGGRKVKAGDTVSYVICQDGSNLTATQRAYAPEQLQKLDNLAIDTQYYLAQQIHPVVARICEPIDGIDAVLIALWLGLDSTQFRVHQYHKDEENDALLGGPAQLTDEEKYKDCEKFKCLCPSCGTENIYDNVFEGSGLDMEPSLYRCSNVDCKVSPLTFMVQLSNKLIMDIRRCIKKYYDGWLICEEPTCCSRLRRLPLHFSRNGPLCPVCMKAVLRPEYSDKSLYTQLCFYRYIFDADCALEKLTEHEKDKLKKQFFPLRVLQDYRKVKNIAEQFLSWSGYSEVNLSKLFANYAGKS
T2 sequence (P33611 whole entry partner): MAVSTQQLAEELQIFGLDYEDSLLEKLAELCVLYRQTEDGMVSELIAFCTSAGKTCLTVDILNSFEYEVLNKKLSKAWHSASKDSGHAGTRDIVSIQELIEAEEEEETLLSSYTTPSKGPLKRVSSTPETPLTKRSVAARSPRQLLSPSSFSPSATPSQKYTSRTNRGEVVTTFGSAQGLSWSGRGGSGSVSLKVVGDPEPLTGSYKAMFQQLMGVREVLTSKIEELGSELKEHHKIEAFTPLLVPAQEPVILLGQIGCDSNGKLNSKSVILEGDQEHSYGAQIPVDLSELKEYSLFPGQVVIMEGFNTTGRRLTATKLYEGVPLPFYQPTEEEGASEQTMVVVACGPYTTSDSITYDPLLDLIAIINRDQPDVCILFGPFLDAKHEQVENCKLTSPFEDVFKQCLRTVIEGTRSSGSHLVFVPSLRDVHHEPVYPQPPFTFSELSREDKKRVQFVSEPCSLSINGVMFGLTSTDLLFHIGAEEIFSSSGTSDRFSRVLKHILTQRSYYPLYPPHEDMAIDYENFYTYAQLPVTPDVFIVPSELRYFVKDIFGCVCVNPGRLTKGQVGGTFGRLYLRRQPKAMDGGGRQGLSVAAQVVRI
T2 sequence (P20664 whole entry partner): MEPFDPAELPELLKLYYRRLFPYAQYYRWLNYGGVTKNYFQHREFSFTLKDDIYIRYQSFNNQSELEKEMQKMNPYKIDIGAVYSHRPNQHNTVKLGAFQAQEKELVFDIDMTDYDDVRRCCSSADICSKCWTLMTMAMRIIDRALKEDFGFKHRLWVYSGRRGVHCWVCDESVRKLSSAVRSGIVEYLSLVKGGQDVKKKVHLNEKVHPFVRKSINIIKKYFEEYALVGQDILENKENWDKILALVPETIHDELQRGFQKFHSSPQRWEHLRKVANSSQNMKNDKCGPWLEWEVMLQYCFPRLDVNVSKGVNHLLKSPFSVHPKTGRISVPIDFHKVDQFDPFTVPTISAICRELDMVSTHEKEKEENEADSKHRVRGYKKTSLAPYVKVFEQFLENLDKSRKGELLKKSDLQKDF
T2 sequence (P33610 whole entry partner): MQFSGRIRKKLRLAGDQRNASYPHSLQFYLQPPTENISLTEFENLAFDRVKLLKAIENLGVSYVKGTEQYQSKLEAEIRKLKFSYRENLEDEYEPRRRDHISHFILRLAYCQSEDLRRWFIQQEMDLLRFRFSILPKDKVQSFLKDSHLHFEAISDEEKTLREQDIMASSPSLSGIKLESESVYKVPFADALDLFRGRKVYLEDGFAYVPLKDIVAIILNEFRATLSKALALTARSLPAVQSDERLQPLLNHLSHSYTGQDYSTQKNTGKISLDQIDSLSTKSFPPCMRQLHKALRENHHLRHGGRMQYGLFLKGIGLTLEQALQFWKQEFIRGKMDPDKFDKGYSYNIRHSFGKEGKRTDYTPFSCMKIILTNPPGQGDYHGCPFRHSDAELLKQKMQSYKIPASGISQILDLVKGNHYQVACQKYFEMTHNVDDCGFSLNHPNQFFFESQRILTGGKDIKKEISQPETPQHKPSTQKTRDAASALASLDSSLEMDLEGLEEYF
Text: as §1

Row | SMILES | Ribonucleoside reductase (Ribonucleoside reductase; 25 μM) | Ribonucleoside reductase (Ribonucleoside reductase; 50 μM) | Ribonucleoside reductase (Ribonucleoside reductase; 100 μM) | DNA polymerase α (DNA polymerase α; 25 μM) | DNA polymerase activity time course, in words (DNA polymerase α) | DNA polymerase α (DNA polymerase α; 100 μM) | DNA polymerase α (DNA polymerase α; 50 μM)
1 | COc1c2cc(S(=O)(=O)[O-])cc1Cc1cc(S(=O)(=O)[O-])cc(c1OC)Cc1cc(S(=O)(=O)[O-])cc(c1OC)Cc1cc(S(=O)(=O)[O-])cc(c1OC)Cc1cc(S(=O)(=O)[O-])cc(c1OC)Cc1cc(S(=O)(=O)[O-])cc(c1OC)Cc1cc(S(=O)(=O)[O-])cc(c1OC)Cc1cc(S(=O)(=O)[O-])cc(c1OC)C2.[Na+].[Na+].[Na+].[Na+].[Na+].[Na+].[Na+].[Na+] [GI-2021] | 158+6% of Control | 124+5% of Control | 91+5% of Control | 76+5% of Control | activity remained suppressed at 60 and 90 min | 52+4% of Control | 
2 | O=S(=O)(O)c1cc2c(O)c(c1)Cc1cc(S(=O)(=O)O)cc(c1O)Cc1cc(S(=O)(=O)O)cc(c1O)Cc1cc(S(=O)(=O)O)cc(c1O)Cc1cc(S(=O)(=O)O)cc(c1O)Cc1cc(S(=O)(=O)O)cc(c1O)C2 [GI-2029] | 130+5% of Control | 130+6% of Control | 141+5% of Control | 70+3% of Control | activity remained suppressed at 60 and 90 min | 44+3% of Control | 60+3% of Control
3 | O=S(=O)(O)c1cc2c(O)c(c1)Cc1cc(S(=O)(=O)O)cc(c1O)Cc1cc(S(=O)(=O)O)cc(c1O)Cc1cc(S(=O)(=O)O)cc(c1O)Cc1cc(S(=O)(=O)O)cc(c1O)Cc1cc(S(=O)(=O)O)cc(c1O)Cc1cc(S(=O)(=O)O)cc(c1O)Cc1cc(S(=O)(=O)O)cc(c1O)C2 [GI-2041] | 127+5% of Control | 127+6% of Control |  | 85+5% of Control | returned to normal at 90 min |  | 
